# Patent US8426397B2, “3 (3-pyrimidin-2-ylbenzyl)-1,2,4-triazolo[4,3-b]pyridazine derivatives” (Merck Patent Gesellschaft mit Beschränkter Haftung, priority 2008, dated 2013)
# How the values were obtained:
# [1] = target: T1, Met kinase (Homo sapiens, UniProt P08581); assay: Met kinase inhibition (cell); assay type: cell-based
# Target sequence in this assay (P08581 25-1390): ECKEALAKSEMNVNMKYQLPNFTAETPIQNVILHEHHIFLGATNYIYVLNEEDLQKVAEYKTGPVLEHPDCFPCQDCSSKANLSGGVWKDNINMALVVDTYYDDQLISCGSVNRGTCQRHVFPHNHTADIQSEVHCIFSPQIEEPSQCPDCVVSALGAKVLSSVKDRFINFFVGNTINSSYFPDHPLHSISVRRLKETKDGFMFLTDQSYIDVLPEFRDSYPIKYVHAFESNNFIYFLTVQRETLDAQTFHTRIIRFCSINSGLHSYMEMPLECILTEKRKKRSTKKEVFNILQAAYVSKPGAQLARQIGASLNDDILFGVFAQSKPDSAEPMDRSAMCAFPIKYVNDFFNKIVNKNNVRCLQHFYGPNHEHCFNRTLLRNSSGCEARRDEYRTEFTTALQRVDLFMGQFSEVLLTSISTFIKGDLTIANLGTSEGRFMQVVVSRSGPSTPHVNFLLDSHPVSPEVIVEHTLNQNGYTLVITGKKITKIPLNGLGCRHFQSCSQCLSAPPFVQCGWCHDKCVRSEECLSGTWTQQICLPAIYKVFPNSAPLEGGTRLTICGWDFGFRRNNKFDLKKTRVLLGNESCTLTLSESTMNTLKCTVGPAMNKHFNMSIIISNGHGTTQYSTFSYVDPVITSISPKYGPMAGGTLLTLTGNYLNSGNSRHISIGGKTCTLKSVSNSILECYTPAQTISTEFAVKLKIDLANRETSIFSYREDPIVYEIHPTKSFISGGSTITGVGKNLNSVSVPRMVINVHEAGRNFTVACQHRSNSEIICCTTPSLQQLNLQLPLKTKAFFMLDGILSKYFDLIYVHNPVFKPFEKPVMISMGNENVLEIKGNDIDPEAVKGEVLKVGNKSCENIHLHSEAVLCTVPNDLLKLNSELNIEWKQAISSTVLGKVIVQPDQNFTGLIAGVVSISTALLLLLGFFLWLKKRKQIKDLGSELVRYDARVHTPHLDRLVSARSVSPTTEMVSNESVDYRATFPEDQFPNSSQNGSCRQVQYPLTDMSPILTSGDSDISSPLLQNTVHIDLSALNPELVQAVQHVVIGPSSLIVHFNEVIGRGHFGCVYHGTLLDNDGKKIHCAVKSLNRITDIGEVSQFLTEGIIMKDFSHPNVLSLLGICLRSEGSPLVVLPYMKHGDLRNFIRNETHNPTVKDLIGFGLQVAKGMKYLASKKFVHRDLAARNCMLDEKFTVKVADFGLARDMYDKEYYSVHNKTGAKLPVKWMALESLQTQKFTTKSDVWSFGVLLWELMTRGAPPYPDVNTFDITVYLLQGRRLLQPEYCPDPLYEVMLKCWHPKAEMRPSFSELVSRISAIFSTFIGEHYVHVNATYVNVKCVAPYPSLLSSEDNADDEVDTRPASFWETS
# [2] = target: T1, Met kinase; assay: Met kinase flashplate method (enzyme); assay type: biochemical; parameters: 6His (N); purchased Upstate 14-526; host or cells: Sf21 insect cells (S. frugiperda), baculovirus; conditions: Met kinase inhibition
# Description: According to the manufacturer's data (Met, active, Upstate, catalogue No. 14-526), Met kinase is expressed for the purposes of protein production in insect cells (Sf21; S. frugiperda) and subsequent affinity-chromatographic purification as “N-terminal 6His-tagged” recombinant human protein in a baculovirus expression vector.
# Flashplate Method (Met Kinase)
# The test plates used are 96-well Flashplate® microtitre plates from Perkin Elmer (Cat. No. SMP200). The components of the kinase reaction described below are pipetted into the assay plate. The Met kinase and the substrate poly Ala-Glu-Lys-Tyr, (pAGLT, 6:2:5:1), are incubated for 3 hrs at room temperature with radioactively labelled ^33P-ATP in the presence and absence of test substances in a total volume of 100 μl. The reaction is terminated using 150 μl of a 60 mM EDTA solution. After incubation for a further 30 min at room temperature, the supernatants are filtered off with suction, and the wells are washed three times with 200 μl of 0.9% NaCl solution each time. The measurement of the bound radioactivity is carried out by means of a scintillation measuring instrument (Topcount NXT, Perkin-Elmer).
# The full value used is the inhibitor-free kinase reaction. This should be approximately in the range 6000-9000 cpm. The pharmacological zero value used is staurosporin in a final concentration of 0.1 mM. The inhibitory values (IC50) are determined using the RS1_MTS program.
# Kinase reaction conditions per well:
# 10 μl of substance to be tested in assay buffer with 10% of DMSO
# 10 μl of ATP (final concentration 1 μM cold, 0.35 μCi of ^33P-ATP)
# 50 μl of Met kinase/substrate mixture in assay buffer;
# • (10 ng of enzyme/well, 50 ng of pAGLT/well) • Solutions used: • Assay buffer: • 50 mM HEPES • 3 mM magnesium chloride • 3 μM sodium orthovanadate • 3 mM manganese(II) chloride • 1 mM dithiothreitol (DTT) • pH=7.5 (to be set using sodium hydroxide) • Stop solution: • 60 mM Titriplex III (EDTA) • ^33P-ATP: Perkin-Elmer; • Met kinase: Upstate, Cat, No. 14-526, Stock 1 μg/10 μl; spec. activity 954 U/mg; • Poly-Ala-Glu-Lys-Tyr, 6:2:5:1: Sigma Cat. No. P1152 In-Vivo Tests
# Target sequence in this assay (P08581 974-1390 limits assumed): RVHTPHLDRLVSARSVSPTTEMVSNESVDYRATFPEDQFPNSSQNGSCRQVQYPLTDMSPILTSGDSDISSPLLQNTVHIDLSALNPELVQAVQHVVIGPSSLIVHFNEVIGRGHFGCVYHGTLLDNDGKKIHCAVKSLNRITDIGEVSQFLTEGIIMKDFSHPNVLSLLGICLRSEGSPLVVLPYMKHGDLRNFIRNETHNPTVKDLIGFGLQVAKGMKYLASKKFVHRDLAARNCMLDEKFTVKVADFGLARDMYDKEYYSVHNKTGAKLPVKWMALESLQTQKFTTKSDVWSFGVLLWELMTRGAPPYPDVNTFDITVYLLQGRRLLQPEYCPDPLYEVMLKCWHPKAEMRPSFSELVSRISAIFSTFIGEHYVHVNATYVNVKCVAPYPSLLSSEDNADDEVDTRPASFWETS
IC50 [1],IC50 [2],SMILES
1 to 100 nM,1 to 100 nM,COc1ccc2nnc(C(F)(F)c3cccc(-c4ncc(-c5cnn(CCN6CCCC6)c5)cn4)c3)n2n1 [A20]
100 to 10000 nM,1 to 100 nM,CNC(=O)c1ccc2nnc(Cc3cccc(-c4ncc(OCCOC)cn4)c3)n2n1 [A28]
100 to 10000 nM,1 to 100 nM,"COCCOc1cnc(-c2cccc(Cc3nnc4ccc(C(=O)O)nn34)c2)nc1 [A38, 3-{3-[5-(2-methoxyethoxy)pyrimidin-2-yl]benzyl}-1,2,4-triazolo[4,3-b]pyridazine-6-carboxylic acid]"
100 to 10000 nM,1 to 100 nM,"CCCNC(=O)c1ccc2nnc(Cc3cccc(-c4ncc(OCCOC)cn4)c3)n2n1 [A39, N-propyl-3-{3-[5-(2-methoxyethoxy)pyrimidin-2-yl]benzyl}-1,2,4-triazolo[4,3-b]pyridazine-6-carboxamide]"
100 to 10000 nM,1 to 100 nM,COCCOc1cnc(-c2cccc(Cc3nnc4ccc(C(=O)N(C)C)nn34)c2)nc1 [A40]
> 10000 nM,1 to 100 nM,COCCOc1cnc(-c2cccc(Cc3nnc4ccc(C(=O)NCCO)nn34)c2)nc1 [A41]
